Measurements reported in patent publication US20240382471A1, “GLUCAGON-LIKE PEPTIDE-1 RECEPTOR MODULATORS AND USES THEREOF” (HEPAGENE THERAPEUTICS (HK) LIMITED, priority 2021, published 2024).

Biological target: GLP1R (Homo sapiens, UniProt P43220)
Assay: GLP1R/CRE-Luc luciferase reporter gene assay (agonist activity)
Type: cell-based
Parameters: host or cells: HKE293 (so in the source)
Details: HKE293-Human GLP1R/CRE-luc cells, 5 h at 37° C., read-out: EC50 (nM) Assay 2
Method: GLP1R-mediated agonist activity was determined with a cell-based functional assay utilizing a britelite plus luciferase reporter gene assay system. The stable cell line overexpress GLP1R and target response element. The stimulation with GLP1R agonist results in the upregulation of intracellular cAMP, which regulate the activities of cAMP-response element binding protein (CREB) and CREB-Luc. Reagents and equipment used in the assay are listed below, followed by the protocol.
• 1) Cell Line: HKE293-Human GLP1R/CRE-luc • 2) Complete Medium: DMEM+10% FBS+1×Penicillin-Streptomycin+400 μg/mL G418
• a) Seed HKE293-Human GLP1R/CRE-luc cells at 20,000 cells/well into 384 well assay plate (6007680-50, PE) using complete medium and incubate overnight. • b) Prepare 6×compound working solution with Medium. • c) Add 5 μL 6×compound working solution into cell plate, incubate 5 h at 37° C. • d) Add 20 μl britelite plus Luciferase Assay Reagent into each well of 384-well assay plate. • e) Record the luminescence value on Envision plate reader.
• 3.1% Activity is calculated as follow:
% Activity=(Signalcmpd−SignalAve_VC)/(SignalAve_PC−SignalAve_VC)×100. • 3.2 Calculate EC50 and Plot effect-dose curve of cmpds:
Y=Bottom+(Top−Bottom)/(1+10^((Log EC50−X)*HillSlope)) • X: log of agonist concentration; Y: % Activity.

GLP1R, sequence (P43220 24-463): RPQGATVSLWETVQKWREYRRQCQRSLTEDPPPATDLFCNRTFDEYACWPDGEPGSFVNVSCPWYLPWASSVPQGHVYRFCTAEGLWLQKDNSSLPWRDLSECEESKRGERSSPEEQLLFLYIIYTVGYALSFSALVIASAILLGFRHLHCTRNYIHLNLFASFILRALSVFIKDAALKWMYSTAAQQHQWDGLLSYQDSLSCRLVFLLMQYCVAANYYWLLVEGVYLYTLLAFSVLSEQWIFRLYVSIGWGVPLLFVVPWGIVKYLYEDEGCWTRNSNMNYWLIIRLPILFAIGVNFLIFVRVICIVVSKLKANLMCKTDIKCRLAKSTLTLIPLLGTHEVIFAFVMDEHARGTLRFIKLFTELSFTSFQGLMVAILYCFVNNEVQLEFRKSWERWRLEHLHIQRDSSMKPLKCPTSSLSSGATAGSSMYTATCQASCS

SMILES	EC50 [nM]
COc1cc(C#N)ccc1COc1cccc(C23CCN(Cc4nc5c(C#N)cc(C(=O)O)cc5n4C[C@@H]4CCO4)CC2C3)n1 (stereo partly drawn) [Compound 1-17, 4-cyano-2-((6-(6-((4-cyano-2-methoxybenzyl)oxy)pyridin-2-yl)-3-azabicyclo[4.1.0]heptan-3-yl)methyl)-1-(((S)-oxetan-2-yl)methyl)-1H-benzo[d]imidazole-6-carboxylic acid]	6.66
COc1cc(C#N)ccc1COc1cccc(C23CCN(Cc4nc5c(F)cc(C(=O)O)cc5n4C[C@@H]4CCO4)CC2C3)n1 (stereo partly drawn) [Compound 1-23, 2-((6-(6-((4-cyano-2-methoxybenzyl)oxy)pyridin-2-yl)-3-azabicyclo[4.1.0]heptan-3-yl)methyl)-4-fluoro-1-(((S)-oxetan-2-yl)methyl)-1H-benzo[d]imidazole-6-carboxylic acid]	3.05
COc1cc(C#N)ccc1COc1cccc(C23CCN(Cc4nc5c(OC)cc(C(=O)O)cc5n4C[C@@H]4CCO4)CC2C3)n1 (stereo partly drawn) [Compound 1-24, 2-((6-(6-((4-cyano-2-methoxybenzyl)oxy)pyridin-2-yl)-3-azabicyclo[4.1.0]heptan-3-yl)methyl)-4-methoxy-1-(((S)-oxetan-2-yl)methyl)-1H-benzo[d]imidazole-6-carboxylic acid]	0.37
COc1cc(C(F)(F)F)ccc1COc1cccc(C23CCN(Cc4nc5ccc(C(=O)O)cc5n4C[C@@H]4CCO4)CC2C3)n1 (stereo partly drawn) [Compound 1-14, 2-((6-(6-((2-methoxy-4-(trifluoromethyl)benzyl)oxy)pyridin-2-yl)-3-azabicyclo[4.1.0]heptan-3-yl)methyl)-1-(((S)-oxetan-2-yl)methyl)-1H-benzo[d]imidazole-6-carboxylic acid]	17.4
COc1cc(Cl)ccc1COc1cccc(C23CCN(Cc4nc5ccc(C(=O)O)cc5n4C[C@@H]4CCO4)CC2C3)n1 (stereo partly drawn) [Compound 1-12, 2-((6-(6-((4-chloro-2-methoxybenzyl)oxy)pyridin-2-yl)-3-azabicyclo[4.1.0]heptan-3-yl)methyl)-1-(((S)-oxetan-2-yl)methyl)-1H-benzo[d]imidazole-6-carboxylic acid]	26.4
COc1nc(C#N)ccc1COc1cccc(C23CCN(Cc4nc5ccc(C(=O)O)cc5n4C[C@@H]4CCO4)CC2C3)n1 (stereo partly drawn) [Compound 1-13, 2-((6-(6-((6-cyano-2-methoxypyridin-3-yl)methoxy)pyridin-2-yl)-3-azabicyclo[4.1.0]heptan-3-yl)methyl)-1-(((S)-oxetan-2-yl)methyl)-1H-benzo[d]imidazole-6-carboxylic acid]	35.8
COc1cc(C#N)ccc1COc1cccc(C23CCN(Cc4nc5ccc(C(=O)O)cc5n4C[C@@H]4CCO4)CC2C3)n1 (single isomer, unassigned) [Compound 1-6-A]	5.55
COc1cc(C#N)ccc1COc1cccc(C23CCN(Cc4nc5ccc(C(=O)O)cc5n4C[C@@H]4CCO4)CC2C3)n1 (single isomer, unassigned) [Compound 1-6-B]	4.98
COCc1ccc(COc2cccc(C34CCN(Cc5nc6ccc(C(=O)O)cc6n5C[C@@H]5CCO5)CC3C4)n2)c(OC)c1 (stereo partly drawn) [Compound 1-15, 2-((6-(6-((2-methoxy-4-(methoxymethyl)benzyl)oxy)pyridin-2-yl)-3-azabicyclo[4.1.0]heptan-3-yl)methyl)-1-(((S)-oxetan-2-yl)methyl)-1H-benzo[d]imidazole-6-carboxylic acid]	439
COc1cc(C#N)ccc1COc1cccc(C23CCN(Cc4nc5c(C6CC6)cc(C(=O)O)cc5n4C[C@@H]4CCO4)CC2C3)n1 (stereo partly drawn) [Compound 1-19, 2-((6-(6-((4-cyano-2-methoxybenzyl)oxy)pyridin-2-yl)-3-azabicyclo[4.1.0]heptan-3-yl)methyl)-4-cyclopropyl-1-(((S)-oxetan-2-yl)methyl)-1H-benzo[d]imidazole-6-carboxylic acid]	19

Continued, values first:

EC50 [nM]	SMILES
2.68	COc1nc(C#N)ccc1COc1ccnc(C23CCN(Cc4nc5c(OC)cc(C(=O)O)cc5n4C[C@@H]4CCO4)CC2C3)n1 (stereo partly drawn) [Compound 1-35, 2-((6-(4-((6-cyano-2-methoxypyridin-3-yl)methoxy)pyrimidin-2-yl)-3-azabicyclo[4.1.0]heptan-3-yl)methyl)-4-methoxy-1-(((S)-oxetan-2-yl)methyl)-1H-benzo[d]imidazole-6-carboxylic acid]
1.06	COc1cc(C(F)(F)F)ccc1COc1ccnc(C23CCN(Cc4nc5c(OC)cc(C(=O)O)cc5n4C[C@@H]4CCO4)CC2C3)n1 (stereo partly drawn) [Compound 1-34, 4-methoxy-2-((6-(4-((2-methoxy-4-(trifluoromethyl)benzyl)oxy)pyrimidin-2-yl)-3-azabicyclo[4.1.0]heptan-3-yl)methyl)-1-(((S)-oxetan-2-yl)methyl)-1H-benzo[d]imidazole-6-carboxylic acid]
266	COc1cc(C#N)ccc1COc1cccc(C23CCN(Cc4nc5c(F)cc(C(=O)NS(C)(=O)=O)cc5n4C[C@@H]4CCO4)CC2C3)n1 (stereo partly drawn) [Compound 7-1, 2-((6-(6-((4-cyano-2-methoxybenzyl)oxy)pyridin-2-yl)-3-azabicyclo[4.1.0]heptan-3-yl)methyl)-4-fluoro-N-(methylsulfonyl)-1-(((S)-oxetan-2-yl)methyl)-1H-benzo[d]imidazole-6-carboxamide]
0.79	COc1cc(C#N)ccc1COc1ccnc(C23CCN(Cc4nc5c(OC)cc(C(=O)O)cc5n4C[C@@H]4CCO4)CC2C3)n1 (stereo partly drawn) [Compound 1-38, 2-((6-(4-((4-cyano-2-methoxybenzyl)oxy)pyrimidin-2-yl)-3-azabicyclo[4.1.0]heptan-3-yl)methyl)-4-methoxy-1-(((S)-oxetan-2-yl)methyl)-1H-benzo[d]imidazole-6-carboxylic acid]
0.49	COc1cc(C#N)ccc1COc1nc(C23CCN(Cc4nc5c(OC)cc(C(=O)O)cc5n4C[C@@H]4CCO4)CC2C3)ncc1F (stereo partly drawn) [Compound 1-43, 2-((6-(4-((4-cyano-2-methoxybenzyl)oxy)-5-fluoropyrimidin-2-yl)-3-azabicyclo[4.1.0]heptan-3-yl)methyl)-4-methoxy-1-(((S)-oxetan-2-yl)methyl)-1H-benzo[d]imidazole-6-carboxylic acid]
0.33	CCn1cncc1Cn1c(CN2CCC3(c4nccc(OCc5ccc(C(F)(F)F)cc5OC)n4)CC3C2)nc2c(OC)cc(C(=O)O)cc21 (stereo not shown) [Compound 1-48, 1-((1-ethyl-1H-imidazol-5-yl)methyl)-4-methoxy-2-((6-(4-((2-methoxy-4-(trifluoromethyl)benzyl)oxy)pyrimidin-2-yl)-3-azabicyclo[4.1.0]heptan-3-yl)methyl)-1H-benzo[d]imidazole-6-carboxylic acid]
0.34	CCOc1cc(C(=O)O)cc2c1nc(CN1CCC3(c4nccc(OCc5ccc(C#N)cc5OC)n4)CC3C1)n2C[C@@H]1CCO1 (stereo partly drawn) [Compound 1-41, 2-((6-(4-((4-cyano-2-methoxybenzyl)oxy)pyrimidin-2-yl)-3-azabicyclo[4.1.0]heptan-3-yl)methyl)-4-ethoxy-1-(((S)-oxetan-2-yl)methyl)-1H-benzo[d]imidazole-6-carboxylic acid]
9.38	COc1c(COc2cccc(C34CCN(Cc5nc6c(OC)cc(C(=O)O)cc6n5C[C@@H]5CCO5)CC3C4)n2)ccc(C#N)c1F (stereo partly drawn) [Compound 1-36, 2-((6-(6-((4-cyano-3-fluoro-2-methoxybenzyl)oxy)pyridin-2-yl)-3-azabicyclo[4.1.0]heptan-3-yl)methyl)-4-methoxy-1-(((S)-oxetan-2-yl)methyl)-1H-benzo[d]imidazole-6-carboxylic acid]
0.16	CCn1cncc1Cn1c(CN2CCC3(c4nccc(OCc5ccc(C#N)cc5OC)n4)CC3C2)nc2c(OC)cc(C(=O)O)cc21 (stereo not shown) [Compound 1-45, 2-((6-(4-((4-cyano-2-methoxybenzyl)oxy)pyrimidin-2-yl)-3-azabicyclo[4.1.0]heptan-3-yl)methyl)-1-((1-ethyl-1H-imidazol-5-yl)methyl)-4-methoxy-1H-benzo[d]imidazole-6-carboxylic acid]
29	CCOc1cc(C#N)ccc1COc1ccnc(C23CCN(Cc4nc5c(OC)cc(C(=O)O)cc5n4C[C@@H]4CCO4)CC2C3)n1 (stereo partly drawn) [Compound 1-39, 2-((6-(4-((4-cyano-2-ethoxybenzyl)oxy)pyrimidin-2-yl)-3-azabicyclo[4.1.0]heptan-3-yl)methyl)-4-methoxy-1-(((S)-oxetan-2-yl)methyl)-1H-benzo[d]imidazole-6-carboxylic acid]
28.1	COc1cc(C#N)ccc1COc1nc(C23CCN(Cc4nc5c(OC)cc(C(=O)O)cc5n4C[C@@H]4CCO4)CC2C3)ccc1OC (stereo partly drawn) [Compound 1-30, 2-((6-(6-((4-cyano-2-methoxybenzyl)oxy)-5-methoxypyridin-2-yl)-3-azabicyclo[4.1.0]heptan-3-yl)methyl)-4-methoxy-1-(((S)-oxetan-2-yl)methyl)-1H-benzo[d]imidazole-6-carboxylic acid]
10.2	C#Cc1ccc(COc2ccnc(C34CCN(Cc5nc6c(OC)cc(C(=O)O)cc6n5C[C@@H]5CCO5)CC3C4)n2)c(OC)c1 (stereo partly drawn) [Compound 1-49, 2-((6-(4-((4-ethynyl-2-methoxybenzyl)oxy)pyrimidin-2-yl)-3-azabicyclo[4.1.0]heptan-3-yl)methyl)-4-methoxy-1-(((S)-oxetan-2-yl)methyl)-1H-benzo[d]imidazole-6-carboxylic acid]
